Laboratory results: the supplement of paper PMC10307832

Columns and labels:
Experiment in all cases: relative viability (nuclei count vs DMSO), 5 days (fraction); higher = more cells survive
[1] = compound: NS(=O)(=O)OC[C@@H]1C[C@@H](n2ccc3c(N[C@H]4CCc5ccccc54)ncnc32)C[C@@H]1O [MLN4924] + O=C(CCCCCCC(=O)Nc1ccccc1)NO [Vorinostat] (partner 1 µM)
How it was run: (§1)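 Relative viability is defined as nuclei in treated wells over nuclei in vehicle wells. Duplicate plates were run and medians reported. Lung cancer cell lines in 1536-well plates were dosed by pin tool one day after seeding, with one drug or with a fixed anchor-drug dose plus five library-drug doses (not always all listed) in √10 steps, and nuclei were counted after 5 days.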

[2] = compound: CC[C@H](C)N1C=C(C2=C(C=C(C=C21)C3=CN=C(C=C3)N4CCNCC4)C(=O)NCC5=C(C=C(NC5=O)C)C)C [GSK126] + Cc1cc(Nc2cc(N3CCN(C)CC3)nc(Sc3ccc(NC(=O)C4CC4)cc3)n2)n[nH]1 [Tozasertib] (partner 0.1 µM)
How it was run: as §1

[3] = compound: C1CC(C1)(C(=O)O)C(=O)O.[NH2-].[NH2-].[Pt+2] [Carboplatin] + COc1cccc2cc(-c3nc([C@H]4CC[C@H](C(=O)O)CC4)n4ncnc(N)c34)[nH]c12 [OSI-027] (partner 0.5 µM)
How it was run: as §1

[4] = compound: NS(=O)(=O)OC[C@@H]1C[C@@H](n2ccc3c(N[C@H]4CCc5ccccc54)ncnc32)C[C@@H]1O [MLN4924] + C[C@@H](Oc1cc(-c2cnn(C3CCNCC3)c2)cnc1N)c1c(Cl)ccc(F)c1Cl [Crizotinib] (partner 1 µM)
How it was run: as §1

| Cell Line | relative viability ([1]; first compound 0.04 µM) | relative viability ([1]; first compound 0.1265 µM) | relative viability ([1]; first compound 0.4 µM) | relative viability ([1]; first compound 1.265 µM) | relative viability ([1]; first compound 4 µM) | relative viability ([2]; first compound 0.08 µM) | relative viability ([2]; first compound 0.253 µM) | relative viability ([2]; first compound 0.8 µM) | relative viability ([2]; first compound 2.53 µM) | relative viability ([2]; first compound 8 µM) | relative viability ([3]; first compound 0.08 µM) | relative viability ([3]; first compound 0.253 µM) | relative viability ([3]; first compound 0.8 µM) | relative viability ([3]; first compound 2.53 µM) | relative viability ([3]; first compound 8 µM) | relative viability ([4]; first compound 0.04 µM) | relative viability ([4]; first compound 0.1265 µM) | relative viability ([4]; first compound 0.4 µM) | relative viability ([4]; first compound 1.265 µM) | relative viability ([4]; first compound 4 µM) |
| --- | --- | --- | --- | --- | --- | --- | --- | --- | --- | --- | --- | --- | --- | --- | --- | --- | --- | --- | --- | --- |
| NCI-H1975 | 0.706 | 0.704 | 0.993 | 0.559 | 0.248 | 0.833 | 0.69 | 0.762 | 0.648 | 0.48 | 0.901 | 0.823 | 0.713 | 0.762 | 0.754 | 0.876 | 1.11 | 1.17 | 0.484 | 0.22 |
| NCI-H1355 | 0.592 | 0.629 | 0.496 | 0.236 | 0.227 | 0.573 | 0.495 | 0.546 | 0.533 | 0.378 | 0.476 | 0.375 | 0.413 | 0.377 | 0.415 | 1.04 | 1.03 | 0.963 | 0.484 | 0.208 |
| NCI-H1755 | 0.711 | 0.494 | 0.466 | 0.338 | 0.261 | 0.577 | 0.64 | 0.53 | 0.552 | 0.508 | 0.823 | 0.786 | 0.712 | 0.729 | 0.74 | 0.798 | 0.761 | 0.52 | 0.181 | 0.154 |
| NCI-H2009 | 0.584 | 0.345 | 0.214 | 0.106 | 0.103 | 0.798 | 0.705 | 0.639 | 0.615 | 0.464 | 0.699 | 0.597 | 0.61 | 0.56 | 0.402 | 0.859 | 0.544 | 0.242 | 0.0917 | 0.0613 |
